In data set [1] the target is T1, brain acetylcholinesterase (Rattus norvegicus, UniProt P37136).
T1 construct: from tissue; host or cells: brain of male CD/SD rats
T1 sequence (P37136 32-614): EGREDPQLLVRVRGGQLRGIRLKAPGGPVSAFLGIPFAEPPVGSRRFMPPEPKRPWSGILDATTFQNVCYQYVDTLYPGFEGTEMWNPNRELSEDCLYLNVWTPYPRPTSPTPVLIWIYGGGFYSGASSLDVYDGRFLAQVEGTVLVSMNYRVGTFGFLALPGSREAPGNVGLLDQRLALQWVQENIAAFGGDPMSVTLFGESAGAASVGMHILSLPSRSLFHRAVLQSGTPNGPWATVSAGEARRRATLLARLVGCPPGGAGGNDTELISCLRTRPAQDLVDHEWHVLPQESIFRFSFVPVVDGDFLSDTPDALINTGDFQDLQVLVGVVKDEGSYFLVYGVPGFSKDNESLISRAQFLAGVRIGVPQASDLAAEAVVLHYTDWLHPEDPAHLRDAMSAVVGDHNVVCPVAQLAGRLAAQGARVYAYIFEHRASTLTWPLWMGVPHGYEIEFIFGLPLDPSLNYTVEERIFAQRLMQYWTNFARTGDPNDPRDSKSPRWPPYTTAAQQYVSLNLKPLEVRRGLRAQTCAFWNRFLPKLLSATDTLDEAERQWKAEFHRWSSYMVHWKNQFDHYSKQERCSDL
In words: Brain acetylcholinesterase activity after oral administration to rats (enzymatic dosage, Ellman method on isolated brains). Type of data set: in vivo, male CD/SD rats. The conditions noted are these: 50 mg/kg by gastric probe as tartrates in water, vs control group, individual animals; for % Variation of acetylcholinesterase at time 10′: 10′ after treatment; for % Variation of acetylcholinesterase at time 60′: 60′ after treatment; for % Variation of acetylcholinesterase at time 120′: 120′ after treatment. As for the experimental part: The effects of the compounds of Examples 2 and 3 on the brain acetylcholinesterase activity of male CD/SD rats evaluation were administered by gastric probe at the dose of 50 mg/kg in the form of tartrates dissolved in water. The rats were previously kept from eating for 18 hrs. One group of rats treated by or with physiological solution served as control. The rats were sacrificed by decapitation at various times after the treatment with the products under examination. On the isolated brains the acetylcholinesterase activity was determined by the Ellman et al. method employed in the "vitro" tests.
The percentage variation of the acetylcholinesterase activity in the brain of the rats treated by or with the brains of rats treated with physiological solution (control group) was calculated.
For orientation: In Ellman's method for cholinesterases, released thiocholine reacts with DTNB.

For data set [2], the target named is T2, Electric Eel acetylcholinesterase, type V.S. (Electrophorus electricus, UniProt O42275).
T2 construct: purchased Sigma Chemicals type V.S
In words: Acetylcholinesterase inhibiting activity, test in vitro (Ellman method). The conditions noted are these: 20 min incubation, 25°C, phosphate buffer pH 8. The data set is classed as biochemical. As for the experimental part:
The acetylcholinesterase activity was determined by the method of Ellman et al. (Ellman, G.L. Courtney, K.D. Andres, V., Featherstone, R.M. A new and rapide colorimetric determination of acetylcholinesterase activity - Biochem. Pharm., 1961, 7, 88).
The Electric Eel acetylcholinesterase, type V.S. of Sigma Chemicals was employed.
To determine IC₅₀, the incubation medium consisted of: Ellman reagent (5,5'-Dithiobis-2-nitrobenzoic acid) 100 µl; enzymatic solution (5,5 units/ml) 35 µl; variable concentration inhibitor 50 µl; phosphate buffer (0.1 mol/l; pH 8) 3000 µl. After 20 min. incubation, 20 µl acetylcholine (0.075 mol/l) are added, and the spectrophotomer, with kinetic software and thermostated at 25°C, was read for 3-5 min. At this point the reaction is in the stationary state. The concentrations of the products apt to inhibit by 50% (IC₅₀) the enzyme activity were calculated.

For another data set, the system named is Suiss female rats. In words: Acute toxicity (LD₅₀). The data set is classed as in vivo. The conditions noted are these: for acute toxicity lower than the one of physostigmine: relative to physostigmine. As for the experimental part: (§1) The LD₅₀ acute toxicity of the compounds obtained in Examples 2,3,4 and 6 has evaluated on Suiss female rats.
(§2) The compounds were administered per os and endovenously to different groups of animals in the form of tatrates dissolved in water. (The endovenous administration provides the highest bio-availability of the products). The results are shown in Table 3, together with the comparison ones obtained employing physostigmine.

Another data set is described as follows: Acute toxicity (LD₅₀). Type of data set: in vivo, Suiss female rats. The conditions noted are these: rat, tartrates dissolved in water. As for the experimental part:
as §1, §2

A further data set concerns the target acetylcholinesterase (Homo sapiens, UniProt P22303). The conditions noted are these: literature data; cited from earlier work.
[3] abbreviates: water, iv, endovenous, read-out: LD₅₀ endovenous.
Where [4] appears, read: water, po, oral (per os), read-out: LD₅₀ oral.

One may read the IC50 as the concentration needed to halve the response being measured. Read a high IC50 as weaker potency.

Values joined by “and” are separate entries in the source; they are usually repeats but may differ in a detail not shown here. Equal entries are not always repeated. Where two headings read alike, the source gives them in different places.

T2 sequence (O42275 24-633): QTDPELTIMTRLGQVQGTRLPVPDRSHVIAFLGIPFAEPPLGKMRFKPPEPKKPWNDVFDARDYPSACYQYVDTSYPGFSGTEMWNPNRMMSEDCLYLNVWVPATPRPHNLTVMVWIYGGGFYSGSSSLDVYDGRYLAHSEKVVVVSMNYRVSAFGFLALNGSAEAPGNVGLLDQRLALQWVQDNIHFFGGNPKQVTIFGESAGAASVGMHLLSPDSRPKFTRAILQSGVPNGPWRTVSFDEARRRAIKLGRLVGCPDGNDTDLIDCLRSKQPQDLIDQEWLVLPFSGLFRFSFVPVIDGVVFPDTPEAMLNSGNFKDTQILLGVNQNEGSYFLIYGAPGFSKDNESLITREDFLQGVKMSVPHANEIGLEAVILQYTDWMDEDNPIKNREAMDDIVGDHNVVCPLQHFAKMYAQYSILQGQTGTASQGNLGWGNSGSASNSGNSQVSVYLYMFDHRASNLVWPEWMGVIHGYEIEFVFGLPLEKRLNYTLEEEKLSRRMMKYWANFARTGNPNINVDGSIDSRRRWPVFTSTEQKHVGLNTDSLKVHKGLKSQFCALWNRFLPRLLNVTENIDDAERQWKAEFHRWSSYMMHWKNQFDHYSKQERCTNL
Chain of acetylcholinesterase (P22303 32-614): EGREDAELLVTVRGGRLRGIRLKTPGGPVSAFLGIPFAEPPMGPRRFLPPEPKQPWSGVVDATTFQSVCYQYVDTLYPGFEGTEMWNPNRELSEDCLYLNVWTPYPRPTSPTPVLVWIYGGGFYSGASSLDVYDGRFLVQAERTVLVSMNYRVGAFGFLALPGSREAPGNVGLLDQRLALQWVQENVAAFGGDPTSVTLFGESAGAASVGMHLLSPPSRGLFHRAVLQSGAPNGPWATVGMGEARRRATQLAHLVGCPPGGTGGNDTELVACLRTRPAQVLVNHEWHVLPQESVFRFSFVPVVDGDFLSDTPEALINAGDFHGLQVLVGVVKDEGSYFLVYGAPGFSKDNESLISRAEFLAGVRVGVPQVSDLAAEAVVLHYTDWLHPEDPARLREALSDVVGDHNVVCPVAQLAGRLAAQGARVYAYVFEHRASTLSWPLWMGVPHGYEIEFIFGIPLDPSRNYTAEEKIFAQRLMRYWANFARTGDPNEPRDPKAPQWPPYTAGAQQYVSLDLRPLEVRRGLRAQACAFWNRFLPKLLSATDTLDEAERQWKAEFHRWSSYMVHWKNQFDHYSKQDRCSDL

Take `CCCCCN(C)C(=O)Oc1ccc2c(c1)[C@]1(C)CCN(C)[C@@H]1N2C` [Example 3, 1,2,3,3a,8,8a-hexahydro-1,3a,8-trimethylpyrrol(2,3-b)indol-5-ol(3aS-cis)-N-methyl,N-pentylcarbamate (ester)]: in data set [1], the “% Variation of acetylcholinesterase at time 10′” value is -60,1% and -53,8%; the “% Variation of acetylcholinesterase at time 60′” value is -69,6% and -70,9%; the “% Variation of acetylcholinesterase at time 120′” value is -72,0% and -68,0%. In data set [2], this compound had an IC50 of 1900 nM. In the data set on Suiss female rats (tartrates dissolved in water), this compound yielded an LD₅₀ endovenous of under 100 mg/kg. In addition, the “acute toxicity lower than the one of physostigmine” value in the data set on Suiss female rats is “approximately 100 times”. In “Acute toxicity (LD₅₀)” (setting [3]), the LD50 was over 50 mg/kg. Also, the LD50 in the data set “Acute toxicity (LD₅₀)” (setting [4]) is over 178 mg/kg.

`CCCN(C)C(=O)Oc1ccc2c(c1)[C@]1(C)CCN(C)[C@@H]1N2C` (relative stereo) [Example 2, 1,2,3,3a,8,8a-hexaydro-1,3a,8-trimethylpyrrol(2,3-b)indol-5-ol(3aS-cis)-N-methyl,N-propylcarbamate (ester)]: in data set [2], the IC50 is 1100 nM. Moreover, the LD₅₀ endovenous with Suiss female rats (tartrates dissolved in water) was >50 mg/kg and <100 mg/kg. For the same compound, the LD₅₀ oral in the data set with Suiss female rats (oral (per os), tartrates dissolved in water) was >100 mg/kg and <150 mg/kg.

Take `CCCCCCCN(C)C(=O)Oc1ccc2c(c1)[C@]1(C)CCN(C)[C@@H]1N2C` [Example 4, 1,2,3,3a,8,8a-hexahydro-1,3a,8-trimethylpyrrol(2,3-b)indol-5-ol (3aS-cis) N-methyl,N-heptylcarbamate (ester)]: in data set [1], the “% Variation of acetylcholinesterase at time 10′” value was 0% and 5,7%; the “% Variation of acetylcholinesterase at time 60′” value is -52,7% and -47,1%; the “% Variation of acetylcholinesterase at time 120′” value was -54,5% and -56,5%. 3500 nM corresponded to half-maximal inhibition in data set [2] (IC50). In the data set with Suiss female rats (tartrates dissolved in water), this compound gave an LD₅₀ endovenous of under 100 mg/kg. The “acute toxicity lower than the one of physostigmine” value in the data set on Suiss female rats is reported as “approximately 100 times”. For the same compound, the LD50 in the data set “Acute toxicity (LD₅₀)” (setting [3]) is over 50 mg/kg. For the same compound, the LD50 in “Acute toxicity (LD₅₀)” (setting [4]) is over 200 mg/kg.

In the case of `CCN(CC)C(=O)Oc1ccc2c(c1)C1(C)CCN(C)C1N2C` (stereo not shown) [diethylphysostigmine], the acetylcholinesterase inhibiting activity entry at acetylcholinesterase is “low inhibiting activity”.

`CN(Cc1ccccc1)C(=O)Oc1ccc2c(c1)[C@]1(C)CCN(C)[C@@H]1N2C` [Example 6, 1,2,3,3a,8,8a-hexahydro-1,3a,8-trimethylpyrrol.(2,3-b)indol-5-ol (3aS-cis) N-methyl,N-benzyl carbamate (ester)] showed an IC50 in data set [2] of 1000 nM. Moreover, the LD50 in “Acute toxicity (LD₅₀)” (setting [3]) was under 50 mg/kg; in “Acute toxicity (LD₅₀)” (setting [4]), about 70 mg/kg.

Consider `CNC(=O)Oc1ccc2c(c1)[C@]1(C)CCN(C)[C@@H]1N2C` [Physostigmine], for which the LD50 in “Acute toxicity (LD₅₀)” (female, Suiss, in vivo, intravenous, endovenous, read-out: LD₅₀ endovenous) worked out at 0.58 mg/kg; in the data set “Acute toxicity (LD₅₀)” (female, Suiss, in vivo, po, oral (per os), read-out: LD₅₀ oral), 2.2 mg/kg.

These data come from EP0486958A1, “Physostigmine derivatives” (MEDIOLANUM FARMACEUTICI s.r.l., priority 1990, dated 1992).
